Test results published in patent US10654834B2 (Venenum Biodesign, LLC, priority 2016, dated 2020).

Tests used:
Mouse STC-1 cells = assay: STC-1 GLP-1 assay (GLP-1 secretion); format: cell-based; settings: Mouse STC-1 cells, GLP-1 secretion, 2 h; read-out: Mouse STC-1 HTRF GLP-1 Activity (EC50)
Protocol: Compounds of the present invention were evaluated for their ability to induce GLP-1 production in mouse intestinal neuroendocrine tumor cells.
Mouse STC-1 cells were cultured and maintained in high glucose DMEM (Sigma #5796) supplemented with 15% horse serum, 5% Fetal Bovine Serum (FBS), 1%° penicillin/streptomycin, and 2 mM L-alanine L-glutamine (GlutaMax). Two days prior to analysis of GLP-1 secretion cells were harvested using Accutase (Sigma), spun down then resuspended in high glucose DMEM media containing 2 mM L-alanine L-glutamine (GlutaMax), 10% charcoal-dextran stripped FBS, and 50 μg/mL Gentamicin, at a density of 100,000° cells/mL. 100 μL of cell suspension was added to each well of a 96-well Poly-D-Lysine coated culture plate (Sigma; cat #2382493) and was incubated at 37° C. with 5% CO2.
Compounds were initially diluted in 100% DMSO (12-point serial dilution by half logs) in a 96-well plate and then were further diluted 1:500 in Hanks' Balanced Salt Solution (HBSS) containing protease inhibitor cocktail, DPP-IV inhibitor, and 0.1% fatty acid free bovine serum albumin. On the day of the experiment cells were washed once with HBSS. After wash, 100 μL of test compound was added to each well. The plate was incubated at 37° C. with 5% CO2 for 2° h. Supernatants were collected and GLP-1 secretion was measured using the Cisbio™ Active GLP-1 HTRF Assay Kit (CisBio). Briefly, Anti-GLP-1-d2 conjugate and Anti-GLP-1 Terbium Cryptate conjugate stock solutions were prepared as per kit instructions. The two solutions were pre-mixed and 10 μL were transferred to a 384-well low volume plate (Greiner; cat #784075). 10 μL of collected supernatants were added to wells already containing the conjugate solution. The plate was covered and incubated at room temperature overnight. The plate was read on an Envision™ plate reader (PerkinElmer).
In Table 53, EC50 values were obtained from the STC-1 GLP-1 production assay for compounds of the present invention are summarized.

human TGR5 receptor = biological target: T1, human TGR5 receptor (Homo sapiens, UniProt Q8TDU6); assay: Human TGR5 cAMP production assay (hTGR5-CHO cells, DiscoveRx cAMP XS+ kit); format: cell-based; settings: luminescent cAMP assay, read-out: Human TGR5 Lum. cAMP Activity (EC50)
T1 construct: host or cells: CHO-K1 (hTGR5-CHO)
T1 sequence (Q8TDU6 1-330): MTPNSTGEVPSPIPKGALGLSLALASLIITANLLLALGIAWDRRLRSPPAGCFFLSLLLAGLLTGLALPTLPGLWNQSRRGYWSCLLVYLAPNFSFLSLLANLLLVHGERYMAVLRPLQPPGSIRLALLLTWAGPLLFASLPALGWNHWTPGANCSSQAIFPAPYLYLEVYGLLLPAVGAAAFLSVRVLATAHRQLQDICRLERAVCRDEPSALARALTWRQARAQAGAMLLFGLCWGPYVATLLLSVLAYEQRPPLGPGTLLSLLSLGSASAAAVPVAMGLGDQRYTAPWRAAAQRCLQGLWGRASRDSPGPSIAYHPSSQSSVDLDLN
How it was run: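 CHO-K1 cells stably expressing hTGR5, in PBS with IBMX and cAMP antibody, treated with half-log compound dilutions for 1 h at room temperature. cAMP measured by enzyme-fragment complementation luminescence after overnight detection; EC50 values reported.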

EC50 (Mouse STC-1 cells) | EC50 (human TGR5 receptor) | SMILES
100 to 999 nM | < 100 nM | N#Cc1ccc(CCNC(=O)[C@@H]2CCCN2c2cc(N3CCC(CCCC(=O)O)CC3)nc(C(F)(F)F)n2)cc1 [Compound 29]
< 100 nM | < 100 nM | COc1cc(C(F)(F)F)ccc1CCNC(=O)[C@@H]1CCN1c1cc(N2CCC(CCC(=O)O)CC2)nc(C(F)(F)F)n1 [Compound 239, (S)-3-(1-(6-(2-((2-methoxy-4-(trifluoromethyl)phenethyl)carbamoyl)azetidin-1-yl)-2-(trifluoromethyl)pyrimidin-4-yl)piperidin-4-yl)propanoic acid]
100 to 999 nM | < 100 nM | N#Cc1ccc(CCNC(=O)[C@@H]2CCN2c2cc(N3CCC(CCCC(=O)NC[C@@H](O)[C@H](O)[C@@H](O)[C@@H](O)CO)CC3)nc(C(F)(F)F)n2)cc1 [Compound 260, (S)—N-(4-cyanophenethyl)-1-(6-(4-(4-oxo-4-(((2R,3S,4S,5S)-2,3,4,5,6-pentahydroxyhexyl)amino)butyl)piperidin-1-yl)-2-(trifluoromethyl)pyrimidin-4-yl)azetidine-2-carboxamide]
100 to 999 nM | < 100 nM | N#Cc1ccc(CCNC(=O)[C@@H]2CCCN2c2cc(N3CCC(CCCC(=O)NCCC(=O)NC(CO)(CO)CO)CC3)nc(C(F)(F)F)n2)cc1 [Compound 109, (S)—N-(4-cyanophenethyl)-1-(6-(4-(4-((3-((1,3-dihydroxy-2-(hydroxymethyl)propan-2-yl)amino)-3-oxopropyl)amino)-4-oxobutyl)piperidin-1-yl)-2-(trifluoromethyl)-pyrimidin-4-yl)pyrrolidine-2-carboxamide]
100 to 999 nM | < 100 nM | N#Cc1ccc(CCNC(=O)[C@@H]2CCCN2c2cc(N3CCC(CCCC(=O)NCCCC[C@H](NC(=N)N)C(=O)O)CC3)nc(C(F)(F)F)n2)cc1 [Compound 129, (S)-6-(4-(1-(6-((S)-2-((4-cyanophenethyl)carbamoyl)pyrrolidin-1-yl)-2-(trifluoromethyl)pyrimidin-4-yl)piperidin-4-yl)butanamido)-2-guanidinohexanoic acid]
100 to 999 nM | < 100 nM | N#Cc1ccc(CCNC(=O)[C@@H]2CCCN2c2cc(N3CCC(CCNC(=N)N)CC3)nc(C(F)(F)F)n2)cc1 [Compound 126, (S)—N-(4-cyanophenethyl)-1-(6-(4-(2-guanidinoethyl)piperidin-1-yl)-2-(trifluoromethyl)pyrimidin-4-yl)pyrrolidine-2-carboxamide]
< 100 nM | < 100 nM | N#Cc1ccc(CCNC(=O)[C@@H]2CCN2c2cc(N3CCC(CCNC(=N)N)CC3)nc(C(F)(F)F)n2)cc1 [Compound 285, (S)-N-(4-cyanophenethyl)-1-(6-(4-(2-guanidinoethyl)piperidin-1-yl)-2-(trifluoromethyl)pyrimidin-4-yl)azetidine-2-carboxamide]
< 100 nM | < 100 nM | O=C(O)CC[C@@H](NC(=O)CCCC1CCN(c2cc(N3CC[C@H]3C(=O)NCCc3ccc(C(F)(F)F)cc3)nc(C(F)(F)F)n2)CC1)C(=O)O [Compound 294, (R)-2-(4-(1-(2-(trifluoromethyl)-6-((S)-2-((4-(trifluoromethyl)-phenethyl)carbamoyl)azetidin-1-yl)pyrimidin-4-yl)piperidin-4-yl)butanamido)pentanedioic acid]
100 to 999 nM | < 100 nM | CS(=O)(=O)NCCOCCNC(=O)NCCC1CCN(c2cc(N3CC[C@H]3C(=O)NCCc3ccc(C#N)cc3)nc(C(F)(F)F)n2)CC1 [Compound 292, (S)-N-(4-cyanophenethyl)-1-(6-(4-(2-(3-(2-(2-(methylsulfonylamino)-ethoxy)ethyl)ureido)ethyl)piperidin-1-yl)-2-(trifluoromethyl)pyrimidin-4-yl)azetidine-2-carboxamide]
< 100 nM | < 100 nM | O=C(O)CCCC1CCN(c2cc(N3CCC[C@H]3C(=O)NCCc3ccc(C(F)(F)F)cc3)nc(C(F)(F)F)n2)CC1 [Compound 9]
100 to 999 nM | < 100 nM | N#Cc1ccc(CCNC(=O)[C@@H]2CCN2c2cc(N3CCC(CCCC(=O)NCCCCNC(=N)N)CC3)nc(C(F)(F)F)n2)cc1 [Compound 283, (S)-N-(4-cyanophenethyl)-1-(6-(4-(4-((4-guanidinobutyl)amino)-4-oxobutyl)piperidin-1-yl)-2-(trifluoromethyl)pyrimidin-4-yl)azetidine-2-carboxamide]
100 to 999 nM | < 100 nM | N#CCCN1CCN(c2cc(N3CCC[C@H]3C(=O)NCCc3ccc(C#N)cc3)nc(C(F)(F)F)n2)CC1 [Compound 32]
< 100 nM | < 100 nM | N#Cc1ccc(CCNC(=O)[C@@H]2CCCN2c2cc(N3CCC(CCCC(=O)NCCS(N)(=O)=O)CC3)nc(C(F)(F)F)n2)cc1 [Compound 62, (S)-N-(4-cyanophenethyl)-1-(6-(4-(4-oxo-4-((2-sulfamoylethyl)amino)butyl)piperidin-1-yl)-2-(trifluoromethyl)pyrimidin-4-yl)pyrrolidine-2-carboxamide]
100 to 999 nM | < 100 nM | N#Cc1ccc(CCNC(=O)[C@@H]2CCCN2c2cc(N3CCC(CCNC(=O)NCCS(=O)(=O)NCC(=O)O)CC3)nc(C(F)(F)F)n2)cc1 [Compound 107]
< 100 nM | < 100 nM | N#Cc1ccc(CCNC(=O)[C@@H]2CCN2c2cc(N3CCC(CCNC(=O)NCCOCCNC(=N)N)CC3)nc(C(F)(F)F)n2)cc1 [Compound 287, (S)-1-(6-(4-(1-amino-1-imino-9-oxo-5-oxa-2,8,10-triazadodecan-12-yl)piperidin-1-yl)-2-(trifluoromethyl)pyrimidin-4-yl)-N-(4-cyanophenethyl)azetidine-2-carboxamid]
< 100 nM | < 100 nM | N#Cc1ccc(CCNC(=O)[C@@H]2CCCN2c2cc(N3CCC(CCCC(=O)N[C@@H](CCCNC(=N)N)C(=O)N[C@@H](CCCNC(=N)N)C(=O)O)CC3)cc(C(F)(F)F)n2)cc1 [Compound 202, (S)-2-((S)-2-(4-(1-(2-((S)-2-((4-cyanophenethyl)carbamoyl)pyrrolidin-1-yl)-6-(trifluoromethyl)pyridin-4-yl)piperidin-4-yl)butanamido)-5-guanidinopentanamido)-5-guanidinopentanoic acid]
< 100 nM | < 100 nM | N[C@@H](CS(=O)(=O)O)C(=O)NCCC1CCN(c2cc(N3CC[C@H]3C(=O)NCCc3ccc(C(F)(F)F)cc3)nc(C(F)(F)F)n2)CC1 [Compound 278, (R)-2-amino-3-oxo-3-((2-(1-(2-(trifluoromethyl)-6-((S)-2-((4-(trifluoromethyl)-phenethyl)carbamoyl)azetidin-1-yl)pyrimidin-4-yl)piperidin-4-yl)ethyl)amino)-propane-1-sulfonic acid]
< 100 nM | < 100 nM | O=C(CCCC1CCN(c2cc(N3CCC[C@H]3C(=O)NCCc3ccc(C(F)(F)F)cc3)nc(C(F)(F)F)n2)CC1)NCCS(=O)(=O)O [Compound 58, (S)-2-(4-(1-(2-(trifluoromethyl)-6-(2-((4-(trifluoromethyl)phenethyl)-carbamoyl)-pyrrolidin-1-yl)-pyrimidin-4-yl)piperidin-4-yl)butanamido)ethanesulfonic acid]
< 100 nM | < 100 nM | N#Cc1ccc(CCNC(=O)[C@@H]2CCN2c2cc(N3CCC(CCNC(=O)NCCS(=O)(=O)O)CC3)nc(C(F)(F)F)n2)cc1 [Compound 271, (S)-2-(3-(2-(1-(6-(2-((4-cyanophenethyl)carbamoyl)azetidin-1-yl)-2-(trifluoromethyl)pyrimidin-4-yl)piperidin-4-yl)ethyl)ureido)-ethanesulfonic acid]
< 100 nM | < 100 nM | N#Cc1ccc(CCNC(=O)[C@@H]2CCCN2c2cc(N3CCC(CCCC(=O)NCCS(=O)(=O)NCC(=O)O)CC3)nc(C(F)(F)F)n2)cc1 [Compound 115, (S)-2-(2-(4-(1-(6-(2-((4-cyanophenethyl)carbamoyl)pyrrolidin-1-yl)-2-(trifluoromethyl)pyrimidin-4-yl)piperidin-4-yl)butanamido)-ethylsulfonamido)acetic acid]
